Laboratory results from patent publication US20240300980A1, “HETEROCYCLIC COMPOUNDS AS KRAS INHIBITOR, AND PREPARATION THEREFOR AND USE THEREOF IN TREATMENT” (SHANGHAI KECHOW PHARMA, INC., priority 2021, published 2024).
Read-outs that look alike come from different tables or passages of the source.

System: AGS cells (KRAS^G12D)
Assay: Detection of cell proliferation in vitro by MTT/MTS method (cell activity experiment)
Assay type: cell-based
Details: AGS cells, MTT/MTS, 3 days of drug treatment, read-out: AGS IC50
Method in brief: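 KRAS G12D AGS cells seeded at 1000 per well, compound added 24 h later, 0.5% final DMSO. Viability read after 3 days of treatment by MTT (solubilised in DMSO) or MTS, 4 h, absorbance 490 nm. IC50 from dose–response curves versus DMSO control.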

IC50 [nM]	SMILES	IC50 (Homo sapiens, AGS, 72 h) [nM]
–	C[C@H]1CCCc2cc(O)cc(-c3ncc4c(N5CC6CCC(C5)N6)nc(OC[C@@]56CCCN5C[C@H](F)C6)nc4c3F)c21 (single isomer, unassigned) [Example 226, (S)-4-(4-((1R,5S)-3,8-diazabicyclo[3.2.1]octan-3-yl)-8-fluoro-2-(((2R,7aS)-2-fluorotetrahydro-1H-pyrrolizin-7a(5H)-yl)methoxy)pyrido[4,3-d]pyrimidin-7-yl)-5-methyl-5,6,7,8-tetrahydronaphthalen-2-ol or (R)-4-(4-((1R,5S)-3,8-diazabicyclo[3.2.1]octan-3-yl)-8-fluoro-2-(((2R,7aS)-2-fluorotetrahydro-1H-pyrrolizin-7a(5H)-yl)methoxy)pyrido[4,3-d]pyrimidin-7-yl)-5-methyl-5,6,7,8-tetrahydronaphthalen-2-ol]	2.4
–	C[C@@H]1OCC2(CCN(c3nc(OC[C@@]45CCCN4C[C@H](F)C5)nc4c(F)c(-c5cc(O)cc6ccc(F)c(F)c56)ncc34)CC2)[C@@H]1N [Example 57, 4-(4-((3S,4S)-4-amino-3-methyl-2-oxa-8-azaspiro[4.5]decan-8-yl)-8-fluoro-2-(((2R, 7aS)-2-fluorotetrahydro-1H-pyrrolizin-7a(5H)-yl)methoxy)pyrido[4,3-d]pyrimidin-7-yl)-5,6-difluoronaphthalen-2-ol]	> 2500
–	CC1Cc2cc(O)cc(-c3ncc4c(N5C[C@H]6CC[C@@H](C5)N6)nc(OC[C@@]56CCCN5C[C@H](F)C6)nc4c3F)c2C1 (stereo partly drawn) [Example 266, 7-(4-((1R,5S)-3,8-diazabicyclo[3.2.1]octan-3-yl)-8-fluoro-2-(((2R,7aS)-2-fluorotetrahydro-1H-pyrrolizin-7a(5H)-yl)methoxy)pyrido[4,3-d]pyrimidin-7-yl)-2-methyl-2,3-dihydro-1H-inden-5-ol]	52
–	C#Cc1c(F)ccc2cc(O)cc(-c3ccc4c(C56CCN(CC5)CC6)nc(OC[C@@]56CCCN5C[C@H](F)C6)nc4c3F)c12 [Example 136, 5-ethynyl-6-fluoro-4-(8-fluoro-2-(((2R,7aS)-2-fluorotetrahydro-1H-pyrrolizin-7a(5H)-yl)methoxy)-4-(quinuclidin-4-yl)quinazolin-7-yl)naphthalen-2-ol]	> 2500
> 2500	C#Cc1c(F)ccc2cc(O)cc(-c3ccc4c(N5C[C@H]6CC[C@@H](C5)C6[S+](C)[O-])nc(OC[C@@]56CCCN5C[C@H](F)C6)nc4c3F)c12 (stereo partly drawn) [Example 130, 5-ethynyl-6-fluoro-4-(8-fluoro-2-(((2R,7aS)-2-fluorotetrahydro-1H-pyrrolizin-7a(5H)-yl)methoxy)-4-((1R,5S, 8R)-8-(methylsulfinyl)-3-azabicyclo[3.2.1]octan-3-yl)quinazolin-7-yl)naphthalen-2-ol]	–
–	Oc1cc(-c2ncc3c(N4CC5CCC(C4)C5F)nc(OC[C@@]45CCCN4C[C@H](F)C5)nc3c2F)c2c(F)c(F)ccc2c1 (stereo partly drawn) [Example 37, 5,6-difluoro-4-(8-fluoro-4-((1R,5S,8R)-8-fluoro-3-azabicyclo[3.2.1]octan-3-yl)-2-(((2R,7aS)-2-fluorotetrahydro-1H-pyrrolizin-7a(5H)-yl)methoxy)pyrido[4,3-d]pyrimidin-7-yl) naphthalen-2-ol]	> 2500
–	C#Cc1cccc2cc(O)cc(-c3ccc4c(N5CC6CCCC(C5)N6)nc(OC[C@@]56CCCN5C[C@H](F)C6)nc4c3F)c12 [Example 106, 4-(4-(3,9-diazabicyclo [3.3.1]nonan-3-yl)-8-fluoro-2-(((2R,7aS)-2-fluorotetrahydro-1H-pyrrolizin-7a(5H)-yl)methoxy)quinazolin-7-yl)-5-ethynylnaphthalen-2-ol]	120
–	C#Cc1cccc2cc(O)cc(-c3ccc4c(N5C[C@H]6CC[C@@H](C5)C6(F)F)nc(OC[C@@]56CCCN5C[C@H](F)C6)nc4c3F)c12 [Example 121, 4-(4-((1R,5S)-8,8-difluoro-3-azabicyclo [3.2.1]octan-3-yl)-8-fluoro-2-(((2R,7aS)-2-fluorotetrahydro-1H-pyrrolizin-7a(5H)-yl)methoxy)quinazolin-7-yl)-5-ethynylnaphthalen-2-ol]	> 2500
–	CCc1c(F)ccc2cc(O)cc(-c3ccc4c(N5C[C@H]6CC[C@@H](C5)N6)c(C#N)c(OC[C@@]56CCCN5C[C@H](F)C6)nc4c3F)c12 [Example 178, 4-((1R,5S)-3,8-diazabicyclo[3.2.1]octan-3-yl)-7-(8-ethyl-7-fluoro-3-hydroxynaphthalen-1-yl)-8-fluoro-2-(((2R,7aS)-2-fluorotetrahydro-1H-pyrrolizin-7a(5H)-yl)methoxy)quinoline-3-carbonitrile]	535
20.7	C#Cc1c(F)ccc2cc(O)cc(-c3ccc4c(N5C[C@H]6CC[C@@H](C5)N6)c(F)c(OC[C@@]56CCCN5C[C@H](F)C6)nc4c3F)c12 [Example 335, 4-(4-((1R,5S)-3,8-diazabicyclo[3.2.1]octan-3-yl)-3,8-difluoro-2-(((2R,7aS)-2-fluorotetrahydro-1H-pyrrolizin-7a(5H)-yl)methoxy)quinolin-7-yl)-5-ethynyl-6-fluoronanhthalen-2-ol]	–
–	Cn1cnc2cc(O)cc(-c3ncc4c(N5C[C@H]6CC[C@@H](C5)N6)nc(OC[C@@]56CCCN5C[C@H](F)C6)nc4c3F)c21 [Example 279, 7-(4-((1R,5S)-3,8-diazabicyclo[3.2.1]octan-3-yl)-8-fluoro-2-(((2R,7aS)-2-fluorotetrahydro-1H-pyrrolizin-7a(5H)-yl)methoxy)pyrido[4,3-d]pyrimidin-7-yl)-1-methyl-1H-benzo[d]imidazol-5-ol]	> 10000
–	CCc1c(F)ccc2cc(O)cc(-c3ccc4c(N5C[C@H]6CC[C@@H](C5)N6)c(C(F)(F)F)c(OC[C@@]56CCCN5C[C@H](F)C6)nc4c3F)c12 [Example 186, 4-(4-((1R,5S)-3,8-diazabicyclo[3.2.1]octan-3-yl)-8-fluoro-2-(((2R,7aS)-2-fluorotetrahydro-1H-pyrrolizin-7a(5H)-yl)methoxy)-3-(trifluoromethyl)quinolin-7-yl)-5-ethyl-6-fluoronaphthalen-2-ol]	1420
–	Nc1cc2ccc(F)c(F)c2c(-c2ncc3c(N4C[C@H]5CC[C@@H](C4)N5)nc(OC[C@@]45CCCN4C[C@H](F)C5)nc3c2F)n1 [Example 38, 1-(4-((1R,5S)-3,8-diazabicyclo[3.2.1]octan-3-yl)-8-fluoro-2-(((2R,7aS)-2-fluorotetrahydro-1H-pyrrolizin-7a(5H)-yl)methoxy)pyrido[4,3-d]pyrimidin-7-yl)-7,8-difluoroisoquinolin-3-amine]	> 2500
–	C#Cc1c(F)ccc2cc(O)cc(-c3ncc4c(-c5cn(C(=O)CO)cn5)nc(OC[C@@]56CCCN5C[C@H](F)C6)nc4c3F)c12 [Example 88, 1-(4-(7-(8-ethynyl-7-fluoro-3-hydroxynaphthalen-1-yl)-8-fluoro-2-(((2R, 7aS)-2-fluorotetrahydro-1H-pyrrolizin-7a(5H)-yl)methoxy)pyrido[4,3-d]pyrimidin-4-yl)-1H-imidazol-1-yl)-2-hydroxyethan-1-one]	> 10000
–	C#Cc1cccc2cc(O)cc(-c3ccc4c(N5C[C@H]6CC[C@@H](C5)N6)c(C#N)c(OC[C@@]56CCCN5C[C@H](F)C6)nc4c3F)c12 [Example 182, 4-((1R,5S)-3,8-diazabicyclo[3.2.1]octan-3-yl)-7-(8-ethynyl-3-hydroxynaphthalen-1-yl)-8-fluoro-2-(((2R,7aS)-2-fluorotetrahydro-1H-pyrrolizin-7a(5H)-yl)methoxy)quinoline-3-carbonitrile]	533
